Our source for the GI50 values is patent publication US9132130B2, “Purine derivative and antitumor agent using same” (ZENYAKU KOGYO KABUSHIKI KAISHA, priority 2009, dated 2015).

Common to all, as to type: cell-based
For test [1], the system named is B16F10 cells (mouse melanoma [malignant melanoma] cells). Kind of test: in vitro antitumor activity test, B16F10 cells, XTT colorimetry. The settings on record: B16-F10, cultured 72 hours. The protocol:
(§1) WiDr cells (human colon cancer cells) subcultured in a culture medium composed of a MEM medium added with 10% fetal bovine serum, 25 mM HEPES and 0.1 mg/ml kanamycin under the conditions of 37° C. and 5% carbon dioxide gas were made into single floating cells by treating with trypsin/EDTA, and a single cell suspension of 3×10^4 cells per 1 ml was prepared using the MEM medium (added with 10% fetal bovine serum, 25 mM HEPES and 0.1 mg/ml kanamycin). After dissolving the test compounds in DMSO, they were diluted in a RPMI 1640 medium (added with 10% fetal bovine serum, 25 mM HEPES and 0.1 mg/ml kanamycin) and prepared so that the concentrations were 2.0×10^−9 to 2.0×10^−4 M.
(§2) 0.1 ml of the cell suspension was placed into each well of 96-well microplates, cultured for 24 hours to allow the cells to adhere to the microplates, then 0.1 ml of the sample solutions were added, and cultured for 72 hours at 37° C. in 5% carbon dioxide gas.
(§3) Afterwards, the level of growth inhibition at various sample concentrations was obtained using XTT colorimetry, and concentrations at which growth was inhibited by 50% (GI50 values [μM]) were calculated.
(§4) In addition, cells other than WiDr cells that were used, and the condition for preparing each single cell suspension were as follows.
B16F10 cells (mouse melanoma [malignant melanoma] cells): 1×10^4 cells/ml
A general note: Tetrazolium assays rely on reduction of a dye to a coloured formazan, in cell work by metabolically active cells.

Test [2] relates to PC-3 cells (human prostate cancer cells). Kind of test: in vitro antitumor activity test, PC-3 cells, XTT colorimetry. The settings on record: PC-3 human prostate cancer cells, cultured 72 hours. The protocol: as §1, §2, §3, §4
PC-3 cells (human prostate cancer cells): 2×10^4 cells/ml

The subject of test [3] is A549 cells (human lung cancer cells). The test can be described thus: in vitro antitumor activity test, A549 cells, XTT colorimetry. Conditions: cultured 72 hours. The protocol: as §1, §2, §3, §4
A549 cells (human lung cancer cells): 2×10^4 cells/ml

Test [4] deals with WiDr cells (human colon cancer cells). The test can be described thus: in vitro antitumor activity test, WiDr cells, XTT colorimetry. The settings on record: cultured 72 hours. The procedure:
as §1, §2, §3

Test [5] relates to P388 cells (mouse leukemia cells). Kind of test: in vitro antitumor activity test, P388 cells, XTT colorimetry. Conditions: cultured 72 hours. The procedure: P388 cells (mouse leukemia cells) passaged in the abdominal cavity of DBA/2 mice were extracted with ascitic fluid, and cultured in a RPMI 1640 medium (added with 10% fetal bovine serum, 25 mM HEPES, 0.1 mg/ml kanamycin and 5 μM 2-hydroxyethyldisulfide) at 37° C. in 5% carbon dioxide gas. After culturing for 16 hours, floating P388 cells were made into a single cell suspension of 4×10^4 cells per 1 ml using the same RPMI 1640 medium as given above. The test substances were dissolved in DMSO, then diluted in a RPMI 1640 medium (added with 10% fetal bovine serum, 25 mM HEPES and 0.1 mg/ml kanamycin) and prepared so that the concentrations were 2.0×10^−9 to 2.0×10^−4 M.
0.1 ml of the cell suspension was placed into each well of 96-well microplates, then 0.1 ml of the sample solutions were added, and cultured for 72 hours at 37° C. in 5% carbon dioxide gas.
as §3

Usually GI50 stands for the concentration that inhibits growth by half. A lower GI50 goes with greater sensitivity of the cells.

With `CCN(C)c1nc(SCc2ccc(OC)c(C#N)c2)nc2c1ncn2C` [Compound 85, 2-(3-cyano-4-methoxybenzylsulfanyl)-6-(N-ethyl-N-methylamino)-9-methyl-9H-purine], the GI50 in test [1] worked out at 120 nM; in test [2], 120 nM; in test [3] it was 140 nM; in test [4], 80 nM; in test [5], 70 nM.

For `COc1ccc(CSc2nc(N(C)C)c3ncn(C)c3n2)cc1F` [Compound 86, 6-dimethylamino-2-(3-fluoro-4-methoxybenzylsulfanyl)-9-methyl-9H-purine], the GI50 in test [1] is 60 nM; in test [2], 50 nM; in test [3], 50 nM; in test [4], 40 nM; in test [5], 30 nM.

In the case of `COc1ccc(CSc2nc(N(C)C)c3ncn(C)c3n2)cc1C#N` [Compound 87, 2-(3-cyano-4-methoxybenzylsulfanyl)-6-dimethylamino-9-methyl-9H-purine], the GI50 worked out at 80 nM in test [1]; 40 nM in test [2]; 50 nM in test [3]; 40 nM in test [4]; 20 nM in test [5].

`CCNc1nc(SCc2ccc(OC)c(C#N)c2)nc2c1ncn2C` [Compound 89, 2-(3-cyano-4-methoxybenzylsulfanyl)-6-ethylamino-9-methyl-9H-purine]: the GI50 turned out to be 130 nM in test [1]; 210 nM in test [2]; 150 nM in test [3]; 120 nM in test [4]; 110 nM in test [5].

For `CCc1ccc(CSc2nc(N3CCOCC3)c3nc(CC)n(C)c3n2)cc1N` [Compound 90, 2-(3-amino-4-ethylbenzylsulfanyl)-8-ethyl-9-methyl-6-morpholino-9H-purine], the GI50 in test [1] turned out to be 1100 nM; in test [2] it was 1730 nM; in test [3], 720 nM; in test [4], 1370 nM; in test [5], 520 nM.

Regarding `CCNc1nc(SCc2ccc(OC)c(F)c2)nc2c1ncn2C` [Compound 91, 6-ethylamino-2-(3-fluoro-4-methoxybenzylsulfanyl)-9-methyl-9H-purine], the GI50 in test [1] stood at 140 nM; in test [2], 340 nM; in test [3], 140 nM; in test [4], 90 nM; in test [5] it was 90 nM.

`CCc1nc2c(N3CCOCC3)nc(SCc3ccc(OC)c(C#N)c3)nc2n1CC` [Compound 94, 2-(3-cyano-4-methoxybenzylsulfanyl)-8,9-diethyl-6-morpholino-9H-purine]: the GI50 in test [1] amounted to 140 nM; in test [2], 110 nM; in test [3] it was 100 nM; in test [4] it was 80 nM; in test [5] it was 80 nM.

As to `CCc1nc2c(N3CCOCC3)nc(SCc3ccc(OC)c(N)c3)nc2n1CC` [Compound 97, 2-(3-amino-4-methoxybenzylsulfanyl)-8,9-diethyl-6-morpholino-9H-purine], the GI50 turned out to be 290 nM in test [1]; 120 nM in test [2]; 140 nM in test [3]; 300 nM in test [4]; 90 nM in test [5].

Regarding `CCOc1ccc(CSc2nc(N3CCOCC3)c3ncn(C)c3n2)cc1` [Compound 99, 2-(4-ethoxybenzylsulfanyl)-9-methyl-6-morpholino-9H-purine], the GI50 in test [1] was determined as 1980 nM; in test [2], 5950 nM; in test [3], 1180 nM; in test [4], 1290 nM; in test [5] it was 960 nM.

Take `CCc1nc2c(N3CCOCC3)nc(SC(c3ccccc3)c3ccccc3)nc2n1C` [Compound 100, 2-benzhydrylsulfanyl-8-ethyl-9-methyl-6-morpholino-9H-purine]: the GI50 turned out to be 4630 nM in test [1]; 150 nM in test [2]; 3900 nM in test [3]; 6110 nM in test [4]; 3290 nM in test [5].

For `CCn1c(C)nc2c(N3CCOCC3)nc(SCc3ccc(OC)cc3)nc21` [Compound 102, 9-ethyl-2-(4-methoxybenzylsulfanyl)-8-methyl-6-morpholino-9H-purine], the GI50 amounted to 1420 nM in test [1]; 830 nM in test [2]; 830 nM in test [3]; 920 nM in test [4]; 720 nM in test [5].

For `CCOc1ccc(CSc2nc(N3CCOCC3)c3nc(CC)n(C)c3n2)cc1N` [Compound 103, 2-(3-amino-4-ethoxybenzylsulfanyl)-8-ethyl-9-methyl-6-morpholino-9H-purine], the GI50 in test [1] amounted to 320 nM; in test [2] it was 130 nM; in test [3], 230 nM; in test [4] it was 280 nM; in test [5], 170 nM.

With `COc1ccc(CSc2nc(N(C)OC)c3ncn(C)c3n2)cc1` [Compound 105, 6-(N-methoxy-N-methylamino)-2-(4-methoxybenzylsulfanyl)-9-methyl-9H-purine], the GI50 in test [1] is 410 nM; in test [2], 560 nM; in test [3], 240 nM; in test [4] it was 260 nM; in test [5], 240 nM.

On to `CCOc1ccc(CSc2nc(N3CCOCC3)c3nc(CC)n(CC)c3n2)cc1N` [Compound 106, 2-(3-amino-4-ethoxybenzylsulfanyl)-8,9-diethyl-6-morpholino-9H-purine], for which the concentration for 50% growth inhibition (GI50) in test [1] was 300 nM; in test [2] it was 950 nM; in test [3], 140 nM; in test [4] it was 290 nM; in test [5] it was 200 nM.

As for `CCOc1ccc(CSc2nc(NC)c3ncn(C)c3n2)cc1N` [Compound 107, 2-(3-amino-4-ethoxybenzylsulfanyl)-9-methyl-6-methylamino-9H-purine], the GI50 in test [1] amounted to 100 nM; in test [2], 50 nM; in test [3], 70 nM; in test [4] it was 310 nM; in test [5], 30 nM.

`COc1ccc(CSc2nc(-n3cccc3)c3ncn(C)c3n2)cc1` [Compound 109, 9-methyl-2-(4-methoxybenzylsulfanyl)-6-(1-pyrrolyl)-9H-purine]: the GI50 in test [1] was found to be 510 nM; in test [2], 580 nM; in test [3], 570 nM; in test [4], 360 nM; in test [5], 320 nM.

Turning to `COc1ccc(CSc2nc(-n3ccnc3)c3ncn(C)c3n2)cc1` [Compound 110, 6-(imidazol-1-yl)-2-(4-methoxybenzylsulfanyl)-9-methyl-9H-purine], the GI50 is 1430 nM in test [1]; 1400 nM in test [2]; 950 nM in test [3]; 790 nM in test [4]; 470 nM in test [5].

For `CCOc1ccc(CSc2nc(N3CCOCC3)c3nc(CC)n(C)c3n2)cc1F` [Compound 116, 2-(4-ethoxy-3-fluorobenzylsulfanyl)-8-ethyl-9-methyl-6-morpholino-9H-purine], the 50% growth inhibitory concentration (GI50) was determined as 440 nM in test [1]; 320 nM in test [2]; 450 nM in test [3]; 330 nM in test [4]; 290 nM in test [5].

As to `CCOc1ccc(CSc2nc(N3CCOCC3)c3nc(CC)n(CC)c3n2)cc1F` [Compound 117, 8,9-diethyl-2-(4-ethoxy-3-fluorobenzylsulfanyl)-6-morpholino-9H-purine], the GI50 amounted to 370 nM in test [1]; 310 nM in test [2]; 430 nM in test [3]; 290 nM in test [4]; 300 nM in test [5].

On to `CCc1nc2c(N3CCOCC3)nc(SCc3ccc(OC)c(F)c3)nc2n1CC` [Compound 123, 8,9-diethyl-2-(3-fluoro-4-methoxybenzylsulfanyl)-6-morpholino-9H-purine], for which the GI50 in test [1] came out at 370 nM; in test [2] it was 240 nM; in test [3], 420 nM; in test [4], 200 nM; in test [5], 130 nM.

As to `COc1ccc(CSc2nc(N3CC=CC3)c3ncn(C)c3n2)cc1` [Compound 130, 2-(4-methoxybenzylsulfanyl)-9-methyl-6-(3-pyrrolin-1-yl)-9H-purine], the GI50 in test [1] stood at 630 nM; in test [2] it was 540 nM; in test [3] it was 400 nM; in test [4] it was 280 nM; in test [5], 250 nM.
